These results are taken from patent US20200338028A1, “BENZENESULFONAMIDE DERIVATIVES AND METHOD FOR MODULATING LIPID RAFT” (Gongwin Biopharm Co., Ltd., priority 2017, published 2020).

Read-outs that look alike come from different tables or passages of the source.

What all share (type): cell-based, human
Test [1] relates to PC-3 cells. Nature of the test: colony formation (clonogenic) assay. Particulars: for IC50: Homo sapiens, PC-3, 240 h, 10 days, FIG. 4F, read-out: IC50, growth inhibition, colony formation assay. As to the method: (§1) To assay the anchorage-dependent clonogenic effect, each individual PC-3 and DU-145 cells (150 cells/well) were seeded in a 6-well plate. After a 10-day treatment with p-TSA, the cell colonies were rinsed with phosphate-buffered saline (PBS), stained with 0.4% (w/v) crystal violet dissolved in 20% methanol, and lysed by 50 mM sodium citrate dissolved in 50% ethanol. The absorbance was read at a wavelength of 595 nm.
To further substantiate the role of Akt, the Myr-Akt overexpressed PC-3 cells were prepared with the method shown as follows. The plasmid encoding Myr-Akt, an N-terminally myristoylation signal-attached Akt, was a gift from Professor Mien-Chie Hung (The University of Texas, M.D. Anderson Cancer Center). For transfection, PC-3 cells were seeded into 60-mm tissue culture dishes with 30% confluence and grown for 24 h to 50-60% confluence. Each dish was washed with serum-free Opti-MEM (Life Technologies), and 2 ml of the serum-free Opti-MEM was then added. Aliquots containing Myr-Akt expression vector or a control plasmid in serum-free Opti-MEM were transfected into cells using Lipofectamine 2000 (Invitrogen) following the manufacturer's instructions. After incubation for 6 h at 37° C., cells were washed with serum-free Opti-MEM and incubated in 10% FBS-containing RPMI-1640 medium for 48 h. The cells were treated with or without p-TSA and then the related analyses were performed. […] Furthermore, the functional rescue of Myr-Akt was determined. […] However, overexpression of Myr-Akt had minimal effect on p-TSA-induced cyclin D1 down-regulation.

Test [2] concerns DU-145 cells. In words: colony formation (clonogenic) assay. The settings on record: DU-145, 10 days, FIG. 1B. The protocol:
as §1

Test [3] relates to DU-145 cells. Nature of the test: CFSE staining, flow cytometric proliferation index. Particulars: DU-145, 48 h. As to the method: (§2) The anti-proliferative effect was further examined by CFSE staining. CFSE is a fluorescent cell staining dye for cell-tracking, and it was conjugated to intracellular proteins and was evenly inherited by divided cells after cell proliferation. Consequently, the fluorescence-staining was distributed to later generations of cells with the passage of time. The process for CFSE staining was performed as follows. CFSE was dissolved in DMSO to constitute a storage solution of 10 mM and was kept at −20° C. until use. The PC-3 and DU-145 cells were adjusted to a density of 10^6 cells/ml and were treated with CFSE at a final concentration of 10 μM in tubes. After incubation at 37° C. for 10 min, labeling was blocked by the addition of RPMI medium with 10% FBS. The tubes were placed on ice for 5 min and then washed. After centrifugation of the tubes, the cells were seeded in RPMI medium with 10% FCS in the absence or presence of p-TSA for 48 h at 37° C. under 5% CO2/95% air condition. The fluorescence intensity was determined by flow cytometric analysis. The cell proliferation was assessed by monitoring the decrease in label intensity in daughter cells. The proliferation index and the cell populations of parent or different generations were calculated by using Modfit LT Version 3.2 and WinList Version 5.0 software.

For test [4], the system named is PC-3 cells. In words: CFSE staining, flow cytometric proliferation index. Particulars: PC-3, 48 h. The protocol:
as §2

Test [5] has as its system DU-145 cells. In words: JC-1 staining, mitochondrial membrane potential. The settings on record: DU-145, 24 h, JC-1, FIG. 2B. As to the method:
(§3) Mitochondria generate the majority of ATP to synthesize bioactive components such as proteins, lipids and nucleotides for cell growth and proliferation. The stress onto mitochondria and interference with ATP production have shown to induce cell cycle arrest. Measurement of mitochondrial membrane potential (ΔΨm) was performed as follows. JC-1, a mitochondrial dye staining mitochondria in living cells in a membrane potential-dependent fashion, was used to determine the mitochondrial membrane potential (ΔΨm). PC-3 and DU145 cells were treated with or without p-TSA. Thirty minutes before the termination of incubation, the cells were incubated with JC-1 (final concentration of 5 μM) at 37° C. for 30 min. The cells were finally harvested, and the accumulation of JC-1 was determined using flow cytometric analysis. […] An increase in the permeability of the outer mitochondrial membrane that leads to the release of apoptogenic factors is the key to cell apoptosis. Mitochondrial membrane permeability is directly controlled by Bcl-2 family of proteins.

The subject of test [6] is PC-3 cells. Nature of the test: JC-1 staining, mitochondrial membrane potential. The settings on record: PC-3, 24 h, JC-1, FIG. 2B. The protocol:
as §3

Test [7] relates to DU-145 cells. In words: Western blot of Bcl-2 family members, cell cycle regulators and Akt/mTOR/p70S6K pathway signals. As to the method: (§4) In addition, protein expression assay of each Mcl-1, Bcl-2, Bid, PUMA and Bak was performed by western blotting with methods described as follows. After treatment of PC-3 and DU145 cells with p-TSA, the cells were harvested with trypsinization, centrifuged and lysed in 0.1 ml of lysis buffer containing 10 mM Tris-HCl (pH 7.4), 150 mM NaCl, 1 mM EGTA, 1% Triton X-100, 1 mM PMSF, 10 μg/ml leupeptin, 10 μg/ml aprotinin, 50 mM NaF and 100 μM sodium orthovanadate. Total protein was quantified, mixed with the sample buffer and boiled at 90° C. for 5 min. Equal amount of protein (30 μg) was separated by electrophoresis in 8% or 12% SDS-PAGE, transferred to PVDF membranes and detected with specific antibodies (1:1000 dilution) for each of Mcl-1, Bcl-2, Bid, PUMA and Bak proteins. The immunoreactive proteins after incubation with appropriately labeled secondary antibody (1:3000 dilution) were detected with an enhanced chemiluminescence detection kit (Amersham, Buckinghamshire, United Kingdom). […] These effects were correlated with the mitochondrial stress.
(§5) During G1 phase, cells grow in size and synthesize mRNA and proteins which are necessary to DNA synthesis. The serine/threonine kinases mTOR and p70S6K that regulate protein synthesis (mRNA translation) through affecting the phosphorylation or activities of several downstream translation factors are critical regulators in G1 phase. Protein expression assay of each Akt, mTOR 4E-BP1 and p70S6K was performed by Western blotting.

In test [8] the test system is PC-3 cells. Described as above. As to the method: as §4, §5

As to `Cc1ccc(S(N)(=O)=O)cc1` [p-TSA, para-toluenesulfonamide], the 50% inhibitory concentration (IC50) came out at 680 ± 20 µM in the test on PC-3 cells [1] (PC-3 overexpressing constitutively active Myr-Akt) and 580 ± 20 µM with PC-3 cells [1] (PC-3 without Myr-Akt overexpression). Further, the “anti-proliferative effect, clonogenic assay” value in the test with PC-3 cells [1] (PC-3, 10 days, FIG. 1B) is on record as “long-term anti-proliferative effect”; in the test on DU-145 cells [2], “long-term anti-proliferative effect”. Moreover, the “proliferation index based on CFSE staining” value with DU-145 cells [3] and in the test with PC-3 cells [4] was “concentration-dependent inhibition” throughout. Further, the mitochondrial membrane potential result in the test with DU-145 cells [5] and in the test on PC-3 cells [6] was “concentration-dependent decrease” each time. For the same compound, the “phosphorylation of Akt” value is listed as “not modified” in the test with DU-145 cells [7] (DU-145, 6 mM p-TSA) and “inhibited” in the test with PC-3 cells [8] (PC-3, 6 mM p-TSA). For the same compound, the “p21 and p27 expression” value with DU-145 cells [7] (DU-145, 6 mM p-TSA, FIG. 3A) was “neither p21 nor p27 expression was modified”; in the test with PC-3 cells [8] (PC-3, 6 mM p-TSA, FIG. 3A), “neither p21 nor p27 expression was modified”. Also, the “phosphorylation of mTOR, 4E-BP1 and p70S6K” value is “inhibitory effect” in the test on DU-145 cells [7] (DU-145, 6 mM p-TSA, FIGS. 3B and 3C); “inhibitory effect” in the test with PC-3 cells [8] (PC-3, 6 mM p-TSA, FIGS. 3B and 3C). The “expressions of PUMA and Bak” value in the test with DU-145 cells [7] (DU-145, 24 h, Western blot) was “increase”; with PC-3 cells [8] (PC-3, 24 h, Western blot), “increase”. The “protein expression of Mcl-1” value in the test with DU-145 cells [7] (DU-145, 24 h, Western blot, FIG. 2D) is recorded as “significantly decreased”. Further, the “cyclin D1 protein expression” value in the test with DU-145 cells [7] (Rb-mutant DU-145, 6 mM p-TSA, FIG. 3A) is given as “decrease”; with PC-3 cells [8] (PC-3, 6 mM p-TSA, FIG. 3A) it was “decrease”. For the same compound, the Rb phosphorylation result in the test with PC-3 cells [8] (PC-3, 6 mM p-TSA, FIG. 3A) is recorded as “decrease”.
